Measurements from article PMC7315563, “Bioactive fluorenes. Part III: 2,7-dichloro-9H-fluorene-based thiazolidinone and azetidinone analogues as anticancer and antimicrobial against multidrug resistant strains agents” (BMC Chemistry, 2020).
Converted amounts (≈) assume the structure as drawn.

Columns and labels:
[1] = system: A549 human lung cancer cells; assay: cell viability assay (MTT); type: cell-based; conditions: 24 h; for viability at 1 µg/mL: read-out: Validity (%) for sample concentrations (µg/mL) 1; for viability at 10 µg/mL: read-out: Validity (%) for sample concentrations (µg/mL) 10; for viability at 31.25 µg/mL: read-out: Validity (%) for sample concentrations (µg/mL) 31.25; for viability at 62.5 µg/mL: 62.50 µg/mL, read-out: Validity (%) for sample concentrations (µg/mL) 62.50; for viability at 125 µg/mL: read-out: Validity (%) for sample concentrations (µg/mL) 125; for viability at 250 µg/mL: read-out: Validity (%) for sample concentrations (µg/mL) 250; for viability at 500 µg/mL: read-out: Validity (%) for sample concentrations (µg/mL) 500; for viability at 1000 µg/mL: read-out: Validity (%) for sample concentrations (µg/mL) 1000
Method: WI-38 normal lung fibroblast cells, A549 lung cancer cells, and MDA-MB-231 breast cancer cells were obtained from VACSERA—Cell Culture Unit, Cairo, Egypt. The cell lines were originally obtained from the American Tissue Culture Collection (ATCC). WI-38, A549, and MDA-MB-231 cell lines were cultured in RPMI-1640 medium supplemented with 10% inactivate fetal bovine serum (FBS) and 1% penicillin/streptomycin were bought (Gibco, Invitrogen, CA). WI-38, A549, and MDA-MB-231 cells were seeded into 96-well plates (at a density of 5000 cells/well). […] Cell viability was then assessed using the MTT assay (Sigma Aldrich, St. Louis, MO, USA), and the absorbance was read at 570 nm using an ELISA microplate reader (Molecular Devices, Downingtown, PA, USA).

[2] = system: Staphylococcus aureus (S. aureus), multidrug resistant clinical isolate; assay: agar well diffusion assay; type: cell-based; conditions: Staphylococcus aureus; S. aureus; 500 µg/mL of tested compound; 24 h
Excerpt: (§1) All microbial strains were kindly provided from the department of Medical Microbiology and Immunology faculty of Medicine Assiut University, these clinical isolates were obtained from clinical cases of infections admitted to Assiut University hospital as urinary tract infections, corneal ulcers, bacterial and fungal pneumonia, otomycosis, oral thrush and wound infections.
(§2) The clinical isolates used were multidrug resistant strains, they were resistant to β lactam (penicillin, amoxacillin, oxacillin), cephalosporins (cefazolin, cefaclor and cefepime) and macrolides (erythromycin and clarithromycin), they included Gram positive bacteria as Staphylococcus aureus (S. aureus), Methicillin-resistant Staphylococcus aureus (MRSA), Streptococcus pneumoniae (S. pneumoniae), and Gram negative bacteria as Escherichia coli (E. coli), Klebsiella pneumoniae (K. pneumoniae), Pseudomonas aeruginosa (P. aeruginosa), and Acinetobacter baumannii (A. baumannii). The fungal strains that were tested are Aspergillus flavus (A. flavus), A. niger (A. niger) and Candida albicans (C. albicans).
(§3) The antimicrobial activity of the fluorene derivatives was initially evaluated by agar well diffusion assay. Mueller–Hinton agar (CM0337) was poured into Petri dishes at 50–60 °C and left to solidify for 15 min. Subsequently, overnight microbial suspensions of tested strains was adjusted to turbidity of 0.5 McFarland Standard, which equals to 1–2 × 10^8 CFU/mL for bacteria and 1–5 × 10^6 for fungi. The microbial inoculums were then diluted in 1:100 ratio in case of bacteria and 1:10 ratio in case of fungi in order to get 1–5 × 10^5 CFU/mL. a sterile cotton swab was dipped into the adjusted microbial suspension and the Mueller–Hinton agar plates were inoculated by evenly streaking cotton swab over the agar medium. Then wells with a diameter of 0.5 cm were cut in the medium with a sterile cork borer. Stock solutions of the flourene derivatives were diluted in DMSO 1% to get 500 μg/mL concentrations. The tested flourene derivatives and controls (50 μL) were dispensed into the wells. The plates were incubated for 24 h at 37 °C for bacteria and C. albicans while at 25 °C for A. falvus and A. niger. The diameters of zones of inhibition (ZOI) around the wells were measured in mm. Following control agents were used: positive control agents—vancomycin (50 μg/mL) for Gram positive bacteria, gentamicin (10 μg/mL) (for Gram negative bacteria) and fluconazole 25 μg/mL for fungi and negative control agent is 1% DMSO.

[3] = system: MDA-MB-231 human breast cancer cells; assay: cell viability assay (MTT); type: cell-based; conditions: 24 h; for viability at 1 µg/mL: read-out: Validity (%) for sample concentrations (µg/mL) 1; for viability at 10 µg/mL: read-out: Validity (%) for sample concentrations (µg/mL) 10; for viability at 31.25 µg/mL: read-out: Validity (%) for sample concentrations (µg/mL) 31.25; for viability at 62.5 µg/mL: read-out: Validity (%) for sample concentrations (µg/mL) 62.5; for viability at 125 µg/mL: read-out: Validity (%) for sample concentrations (µg/mL) 125; for viability at 250 µg/mL: read-out: Validity (%) for sample concentrations (µg/mL) 250; for viability at 500 µg/mL: read-out: Validity (%) for sample concentrations (µg/mL) 500
Method: (§4) WI-38 normal lung fibroblast cells, A549 lung cancer cells, and MDA-MB-231 breast cancer cells were obtained from VACSERA—Cell Culture Unit, Cairo, Egypt. The cell lines were originally obtained from the American Tissue Culture Collection (ATCC). WI-38, A549, and MDA-MB-231 cell lines were cultured in RPMI-1640 medium supplemented with 10% inactivate fetal bovine serum (FBS) and 1% penicillin/streptomycin were bought (Gibco, Invitrogen, CA). WI-38, A549, and MDA-MB-231 cells were seeded into 96-well plates (at a density of 5000 cells/well). On the following day, cells were treated with different concentrations (0, 1, 10, 31.25, 62.5, 125, 250, 500 µg/mL) of 16 fluorene derivatives in fresh medium and incubated for another 24 h. Cell viability was then assessed using the MTT assay (Sigma Aldrich, St. Louis, MO, USA), and the absorbance was read at 570 nm using an ELISA microplate reader (Molecular Devices, Downingtown, PA, USA).

[4] = system: WI-38 human normal fibroblast cells; assay: cell viability assay (MTT); type: cell-based; conditions: 24 h; for viability at 31.25 µg/mL: read-out: Validity (%) for sample concentrations (µg/mL) 31.25; for viability at 62.5 µg/mL: 62.50 µg/mL, read-out: Validity (%) for sample concentrations (µg/mL) 62.50; for viability at 125 µg/mL: read-out: Validity (%) for sample concentrations (µg/mL) 125; for viability at 250 µg/mL: read-out: Validity (%) for sample concentrations (µg/mL) 250; for viability at 500 µg/mL: read-out: Validity (%) for sample concentrations (µg/mL) 500
Method: as §4

[5] = system: Escherichia coli (E. coli), multidrug resistant clinical isolate; assay: agar well diffusion assay; type: cell-based; conditions: 24 h, 500 µg/mL of tested compound
Excerpt: as §1, §2, §3

SMILES	melting point	viability at 1 µg/mL [1]	viability at 10 µg/mL [1]	viability at 31.25 µg/mL [1]	viability at 62.5 µg/mL [1]	viability at 125 µg/mL [1]	viability at 250 µg/mL [1]	viability at 500 µg/mL [1]	viability at 1000 µg/mL [1]	IC50 [1]	viability at 1 µg/mL [3]	viability at 10 µg/mL [3]	viability at 31.25 µg/mL [3]	viability at 62.5 µg/mL [3]	viability at 125 µg/mL [3]	viability at 250 µg/mL [3]	viability at 500 µg/mL [3]	IC50 [3]	viability at 31.25 µg/mL [4]	viability at 62.5 µg/mL [4]	also measured
O=C1CSC(c2ccc(Cl)cc2)N1c1nc(-c2cc(Cl)cc3c2-c2ccc(Cl)cc2C3)cs1 (centres unmarked) [5c, 2-(4-Chlorophenyl)-3-(4-(2,7-dichloro-9H-fluoren-4-yl)thiazol-2-yl)thiazolidin-4-one]	83 to 85 °C	91.2%	90.1%	89.2%	80.9%	62.6%	59.8%	46.3%	14.9%	415 µg/mL (≈ 783 µM)	97.1%	95.7%	95.8%	92.1%	86.3%	84.5%	83%	> 500 µg/mL	89.7%	87.3%	zone of inhibition at 500 µg/mL [2]: 3 mm; viability at 125 µg/mL [4]: 83.8%; viability at 250 µg/mL [4]: 77.5%; viability at 500 µg/mL [4]: 71.3%; IC50 [4]: > 500 µg/mL
O=C1CSC(c2ccc(Br)cc2)N1c1nc(-c2cc(Cl)cc3c2-c2ccc(Cl)cc2C3)cs1 (centres unmarked) [5d, 2-(4-Bromophenyl)-3-(4-(2,7-dichloro-9H-fluoren-4-yl)thiazol-2-yl)thiazolidin-4-one]	155 to 157 °C	98.4%	91.7%	88.9%	82.2%	78.8%	73%	58.6%	18.1%	574 µg/mL (≈ 999 µM)	96.8%	94.4%	93.7%	92.4%	88.4%	87.2%	85.7%	> 500 µg/mL	94.9%	88.5%	zone of inhibition at 500 µg/mL [2]: 4 mm; viability at 125 µg/mL [4]: 86.1%; viability at 250 µg/mL [4]: 50.7%; viability at 500 µg/mL [4]: 44.2%; IC50 [4]: 268 µg/mL (≈ 467 µM)
O=C1CSC(C=Cc2ccccc2)N1c1nc(-c2cc(Cl)cc3c2-c2ccc(Cl)cc2C3)cs1 (centres unmarked) [5i, 3-(4-(2,7-Dichloro-9H-fluoren-4-yl)thiazol-2-yl)-2-styrylthiazolidin-4-one]	114 to 116 °C	93.3%	92.2%	91.4%	85.6%	81.3%	76.9%	63.2%	49.3%	896 µg/mL (≈ 1720 µM)	96%	83.8%	61%	56.2%	52.2%	50.5%	46.1%	334 µg/mL (≈ 640 µM)	88.2%	86.9%	zone of inhibition at 500 µg/mL [2]: 10 mm; viability at 125 µg/mL [4]: 69.1%; viability at 250 µg/mL [4]: 63.1%; viability at 500 µg/mL [4]: 59.3%; IC50 [4]: > 500 µg/mL
O=C1CSC(c2ccc[nH]2)N1c1nc(-c2cc(Cl)cc3c2-c2ccc(Cl)cc2C3)cs1 (centres unmarked) [5l, 3-(4-(2,7-Dichloro-9H-fluoren-4-yl)thiazol-2-yl)-2-(1H-pyrrol-2-yl)thiazolidin-4-one]	124 to 126 °C	96.5%	93.6%	75.4%	72.2%	68%	62.9%	51.9%	41.3%	577 µg/mL (≈ 1190 µM)	99.1%	87.6%	79.7%	76.2%	72.4%	64.6%	57.8%	> 500 µg/mL	70.5%	60.6%	zone of inhibition at 500 µg/mL [2]: 9 mm; zone of inhibition at 500 µg/mL [5]: 6 mm; viability at 125 µg/mL [4]: 57.2%; viability at 250 µg/mL [4]: 48.1%; viability at 500 µg/mL [4]: 39.5%; IC50 [4]: 223 µg/mL (≈ 460 µM)
O=C1CSC(c2ccncc2)N1c1nc(-c2cc(Cl)cc3c2-c2ccc(Cl)cc2C3)cs1 (centres unmarked) [5m, 3-(4-(2,7-Dichloro-9H-fluoren-4-yl)thiazol-2-yl)-2-(pyridin-4-yl)thiazolidin-4-one]	110 to 112 °C	94%	92.5%	70.7%	67.5%	64.5%	56.5%	37.3%	20.1%	357 µg/mL (≈ 719 µM)	97.3%	89.5%	85.4%	88.3%	76.9%	65.6%	50.6%	505 µg/mL (≈ 1020 µM)	68.5%	64.6%	zone of inhibition at 500 µg/mL [2]: 5 mm; zone of inhibition at 500 µg/mL [5]: 8 mm; viability at 125 µg/mL [4]: 42.3%; viability at 250 µg/mL [4]: 40.3%; viability at 500 µg/mL [4]: 26.5%; IC50 [4]: 92 µg/mL (≈ 185 µM)
COc1ccc(C2C(Cl)C(=O)N2c2nc(-c3cc(Cl)cc4c3-c3ccc(Cl)cc3C4)cs2)cc1 (centres unmarked) [6b, 3-Chloro-1-(4-(2,7-dichloro-9H-fluoren-4-yl)thiazol-2-yl)-4-(4-methoxyphenyl)azetidin-2-one]	110 to 112 °C	95.7%	86.9%	85.8%	83.5%	77.8%	68.2%	35.2%	36.3%	338 µg/mL (≈ 640 µM)	95.9%	93.4%	89.7%	84.2%	79.8%	72.9%	68.9%	> 500 µg/mL	94.1%	87.9%	zone of inhibition at 500 µg/mL [5]: 12 mm; viability at 125 µg/mL [4]: 71.6%; viability at 250 µg/mL [4]: 62.6%; viability at 500 µg/mL [4]: 57.7%; IC50 [4]: > 500 µg/mL
